Test results taken from PubChem BioAssay AID330 (DTP/NCI, 2004).
Several values for one entry are separate records, joined by “and”; a condition that tells them apart may be missing. Identical values can stand only once. Toxic doses and inconclusive results are not listed. How the source made its calls: active means survival T/C of 150% or more; inactive means T/C below 125% in these data.

Test system: P388 leukemia ip, CD2F1 mice, survival T/C
Experiment: NCI In Vivo Anticancer Drug Screen. Data for tumor model P388 Leukemia (intraperitoneal) in CD2F1 (CDF1) mice
Details: endpoint: median survival time, higher = longer survival
Method in brief: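 Mice carrying the transplanted tumor received test compound or vehicle. Survival was recorded in each group, and the value is the treated-group measurement divided by that of the vehicle-treated control group.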

[1] = dose: 50.0 mg/kg/injection, schedule: Q01DX005 (ip), vehicle: saline with Tween-80
[2] = dose: 100.0 mg/kg/injection, schedule: Q01DX005 (ip), vehicle: saline with Tween-80
[3] = dose: 50.0 mg/kg/injection, schedule: Q01DX009 (ip), vehicle: Klucel (hydroxypropylcellulose) (HPC)
[4] = dose: 100.0 mg/kg/injection, schedule: Q01DX009 (ip), vehicle: Klucel (hydroxypropylcellulose) (HPC)
[5] = dose: 200.0 mg/kg/injection, schedule: Q01DX009 (ip), vehicle: Klucel (hydroxypropylcellulose) (HPC)
[6] = dose: 400.0 mg/kg/injection, schedule: Q01DX009 (ip), vehicle: Klucel (hydroxypropylcellulose) (HPC)
[7] = dose: 50.0 mg/kg/injection, schedule: Q01DX009 (ip), vehicle: saline with Tween-80
[8] = dose: 100.0 mg/kg/injection, schedule: Q01DX009 (ip), vehicle: saline with Tween-80
[9] = dose: 200.0 mg/kg/injection, schedule: Q01DX009 (ip), vehicle: saline with Tween-80
[10] = dose: 60.0 mg/kg/injection, schedule: Q01DX005 (ip), vehicle: saline with Tween-80

Measured: T/C

N=CC1=C(O)CCOC1=O
inactive: dose: 100.0 mg/kg/injection, schedule: Q01DX001 (ip), vehicle: saline 99 % of control | dose: 200.0 mg/kg/injection, schedule: Q01DX001 (ip), vehicle: saline 99 % of control | dose: 400.0 mg/kg/injection, schedule: Q01DX001 (ip), vehicle: saline 100 % of control

CCN(CC)CCOCCOC1(C)CCC(C(C)C)CC1 (stereo not drawn)
inactive: dose: 50.0 mg/kg/injection, schedule: Q01DX005 (ip), vehicle: suspension in saline 108 % of control | dose: 100.0 mg/kg/injection, schedule: Q01DX005 (ip), vehicle: suspension in saline 106 % of control

COc1ccc2c(Cl)ccnc2c1OC
inactive: [1] 99 % of control | [2] 107 % of control

CCCC1(CC(=O)OCC)SCCN1C(=O)OCC (stereo not drawn)
inactive: dose: 25.0 mg/kg/injection, schedule: Q01DX005 (ip), vehicle: saline with Tween-80 102 % of control | [1] 102 % of control | [2] 102 % of control | dose: 200.0 mg/kg/injection, schedule: Q01DX005 (ip), vehicle: saline with Tween-80 102 % of control

Nc1cccc(SC2CC(=O)N(c3ccc(Cl)cc3C(=O)c3ccccc3)C2=O)c1 (stereo not drawn)
inactive: [3] 105 % of control | [4] 99 % of control | [5] 89 % of control

C=C(C)OP(=O)(OCC)OCC
inactive: dose: 100.0 mg/kg/injection, schedule: Q01DX001 (ip), vehicle: Klucel (hydroxypropylcellulose) (HPC) 100 % of control | dose: 200.0 mg/kg/injection, schedule: Q01DX001 (ip), vehicle: Klucel (hydroxypropylcellulose) (HPC) 111 % of control | dose: 400.0 mg/kg/injection, schedule: Q01DX001 (ip), vehicle: Klucel (hydroxypropylcellulose) (HPC) 102 % of control

CC(=O)N(C)N(Cc1ccc(C#N)cc1)C(C)=O
inactive: dose: 25.0 mg/kg/injection, schedule: Q01DX009 (ip), vehicle: Klucel (hydroxypropylcellulose) (HPC) 101 % of control | [3] 98 % of control | [4] 99 % of control | [5] 108 % of control | [6] 98 % of control

CCCCCCSC(=O)Nc1ccc(C)c(NC(=O)SCCCCCC)c1
inactive: [7] 100 % of control | [8] 100 % of control | [9] 100 % of control

O=C(O)CSc1nc(-c2ccccc2)c(-c2ccccc2)n1-c1ccccn1
inactive: dose: 25.0 mg/kg/injection, schedule: Q01DX009 (ip), vehicle: water 103 % of control and 124 % of control | dose: 50.0 mg/kg/injection, schedule: Q01DX009 (ip), vehicle: water 108 % of control and 97 % of control | dose: 100.0 mg/kg/injection, schedule: Q01DX009 (ip), vehicle: water 118 % of control and 122 % of control and 86 % of control | dose: 200.0 mg/kg/injection, schedule: Q01DX009 (ip), vehicle: water 115 % of control and 86 % of control

COc1ccc(NC(=O)c2cc3c(cc2Br)OCO3)cc1
inactive: dose: 12.5 mg/kg/injection, schedule: Q01DX009 (ip), vehicle: other 102 % of control | dose: 25.0 mg/kg/injection, schedule: Q01DX009 (ip), vehicle: other 96 % of control | dose: 50.0 mg/kg/injection, schedule: Q01DX009 (ip), vehicle: other 100 % of control | dose: 100.0 mg/kg/injection, schedule: Q01DX009 (ip), vehicle: other 93 % of control | dose: 200.0 mg/kg/injection, schedule: Q01DX009 (ip), vehicle: other 99 % of control | dose: 400.0 mg/kg/injection, schedule: Q01DX009 (ip), vehicle: other 89 % of control

O=c1c(Cl)c(Cl)oc(Cl)c1Cl
inactive: [1] 100 % of control | [2] 98 % of control

CC1=NNC(=O)/C1=C/c1ccccc1Cl
inactive: [3] 104 % of control | [4] 105 % of control | [5] 112 % of control | [6] 113 % of control

Cc1ccc(NC(=O)Nc2cc(S(=O)(=O)O)ccc2Oc2ccccc2Cl)cc1
inactive: dose: 100.0 mg/kg/injection, schedule: Q04DX003 (ip), vehicle: saline sonified 100 % of control | dose: 200.0 mg/kg/injection, schedule: Q04DX003 (ip), vehicle: saline sonified 90 % of control | dose: 400.0 mg/kg/injection, schedule: Q04DX003 (ip), vehicle: saline sonified 100 % of control

CCCCNc1ncnc2[nH]ncc12
inactive: dose: 12.5 mg/kg/injection, schedule: Q01DX009 (ip), vehicle: saline with Tween-80 100 % of control | dose: 12.5 mg/kg/injection, schedule: Q04DX003 (ip), vehicle: saline with Tween-80 90 % of control | dose: 25.0 mg/kg/injection, schedule: Q01DX009 (ip), vehicle: saline with Tween-80 110 % of control | dose: 25.0 mg/kg/injection, schedule: Q04DX003 (ip), vehicle: saline with Tween-80 95 % of control | [7] 105 % of control | dose: 50.0 mg/kg/injection, schedule: Q04DX003 (ip), vehicle: saline with Tween-80 90 % of control

Clc1cc2c(c(CSC3=NCN(CC4CC4)CN3)c1)OCOC2
inactive: dose: 15.0 mg/kg/injection, schedule: Q01DX005 (ip), vehicle: Klucel (hydroxypropylcellulose) (HPC) 99 % of control | dose: 30.0 mg/kg/injection, schedule: Q01DX005 (ip), vehicle: Klucel (hydroxypropylcellulose) (HPC) 100 % of control | dose: 60.0 mg/kg/injection, schedule: Q01DX005 (ip), vehicle: Klucel (hydroxypropylcellulose) (HPC) 98 % of control and 101 % of control

NNC(=O)c1cnn(-c2ccccc2)c1N
inactive: dose: 15.0 mg/kg/injection, schedule: Q01DX005 (ip), vehicle: saline with Tween-80 99 % of control | dose: 30.0 mg/kg/injection, schedule: Q01DX005 (ip), vehicle: saline with Tween-80 93 % of control | [10] 99 % of control and 94 % of control

CCOC(=O)/C=C1/SC(N2CCCCC2)C(=O)N1C (stereo not drawn)
inactive: dose: 50.0 mg/kg/injection, schedule: Q01DX009 (ip), vehicle: saline 100 % of control | dose: 100.0 mg/kg/injection, schedule: Q01DX009 (ip), vehicle: saline 104 % of control | dose: 200.0 mg/kg/injection, schedule: Q01DX009 (ip), vehicle: saline 100 % of control

CCOc1ccc(N=Nc2ccc(N)cc2N)cc1
inactive: [4] 118 % of control | [5] 100 % of control | [6] 93 % of control

Cc1ncc(C(N)=S)c(N)n1
inactive: [7] 103 % of control | [8] 108 % of control | [9] 105 % of control

COc1ccc(-c2oc3cc(OC)c(OC)c(O)c3c(=O)c2O)cc1O
inactive: dose: 25.0 mg/kg/injection, schedule: Q04DX002 (ip), vehicle: saline with Tween-80 105 % of control | dose: 50.0 mg/kg/injection, schedule: Q04DX002 (ip), vehicle: saline with Tween-80 110 % of control | dose: 100.0 mg/kg/injection, schedule: Q04DX002 (ip), vehicle: saline with Tween-80 103 % of control | dose: 200.0 mg/kg/injection, schedule: Q04DX002 (ip), vehicle: saline with Tween-80 102 % of control

CN(C)[C@@H]1C(=O)C(C(N)=O)=C(O)[C@@]2(O)C(=O)C3=C(O)c4c(O)ccc(Cl)c4[C@@](C)(O)[C@H]3C[C@@H]12
inactive: dose: 100.0 mg/kg/injection, schedule: Q04DX003 (ip), vehicle: saline 104 % of control | dose: 200.0 mg/kg/injection, schedule: Q04DX003 (ip), vehicle: saline 113 % of control

NC(C(=O)O)/C1=C/CCCCCC1 (stereo not drawn)
inactive: dose: 25.0 mg/kg/injection, schedule: Q01DX005 (ip), vehicle: Klucel (hydroxypropylcellulose) (HPC) 106 % of control | dose: 50.0 mg/kg/injection, schedule: Q01DX005 (ip), vehicle: Klucel (hydroxypropylcellulose) (HPC) 101 % of control | dose: 100.0 mg/kg/injection, schedule: Q01DX005 (ip), vehicle: Klucel (hydroxypropylcellulose) (HPC) 98 % of control | dose: 200.0 mg/kg/injection, schedule: Q01DX005 (ip), vehicle: Klucel (hydroxypropylcellulose) (HPC) 101 % of control

O=C1CCC(c2n[nH]c(=S)o2)N1 (stereo not drawn)
inactive: [10] 104 % of control | dose: 120.0 mg/kg/injection, schedule: Q01DX005 (ip), vehicle: saline with Tween-80 105 % of control | dose: 240.0 mg/kg/injection, schedule: Q01DX005 (ip), vehicle: saline with Tween-80 108 % of control
